Source: patent publication US9278942B2, “Non-steroidal compounds as androgen receptor modulators” (FLX Discoveries Oy, priority 2011, dated 2016)

Each compound was assayed against T1, human AR (Homo sapiens, UniProt P10275) (assay: Competitive AR binding assay against [3H]-R1881 in transiently transfected COS-1 cells). Conditions: Table 1; compound 13.4 μM; [3H]-R1881 1.34 nM; complete inhibition equals 100%.
T1 construct: expressed in transfected cells; host or cells: COS-1
T1 sequence (P10275 1-920): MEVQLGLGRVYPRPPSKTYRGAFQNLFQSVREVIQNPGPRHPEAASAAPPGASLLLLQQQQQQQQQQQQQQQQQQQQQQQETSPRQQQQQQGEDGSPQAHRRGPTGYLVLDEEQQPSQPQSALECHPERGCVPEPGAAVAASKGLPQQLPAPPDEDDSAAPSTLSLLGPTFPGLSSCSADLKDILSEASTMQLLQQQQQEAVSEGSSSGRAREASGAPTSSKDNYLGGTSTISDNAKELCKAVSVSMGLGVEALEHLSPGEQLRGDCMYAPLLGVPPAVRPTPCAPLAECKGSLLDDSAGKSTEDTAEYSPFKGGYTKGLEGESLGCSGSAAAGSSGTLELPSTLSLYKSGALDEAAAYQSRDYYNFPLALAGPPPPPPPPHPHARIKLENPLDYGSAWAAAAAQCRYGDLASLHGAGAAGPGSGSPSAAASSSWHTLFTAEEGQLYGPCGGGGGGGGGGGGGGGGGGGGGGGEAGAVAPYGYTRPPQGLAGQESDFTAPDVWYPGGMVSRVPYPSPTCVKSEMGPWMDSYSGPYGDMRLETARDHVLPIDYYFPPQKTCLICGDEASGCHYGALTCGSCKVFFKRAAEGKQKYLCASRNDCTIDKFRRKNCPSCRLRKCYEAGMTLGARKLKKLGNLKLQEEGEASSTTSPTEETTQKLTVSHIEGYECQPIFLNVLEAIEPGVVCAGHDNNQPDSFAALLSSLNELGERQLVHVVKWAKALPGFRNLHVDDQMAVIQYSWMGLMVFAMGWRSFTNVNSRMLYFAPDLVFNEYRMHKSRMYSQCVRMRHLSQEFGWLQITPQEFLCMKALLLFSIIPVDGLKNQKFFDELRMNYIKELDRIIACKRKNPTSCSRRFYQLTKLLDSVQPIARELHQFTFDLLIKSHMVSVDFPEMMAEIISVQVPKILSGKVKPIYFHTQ
Protocol: Competitive AR Binding Assay.
AR binding was measured by a competitive assay against [^3H]-R1881 (PerkinElmer) in transiently transfected COS-1 cells. One day before transfection, COS-1 cells were seeded into 2 ml of DMEM (Dulbecco's modified Eagle medium, Gipco) with 10% dextran-charcoal-treated fetal bovine serum and 0.25% (vol/vol) Penicillin-Streptomysin (Euroclone) at a density of 140×10^3 cells/well. After medium change to DMEM 2.5% FBS, the cells were transfected for 24 hours with 10 ng/well of human AR expression vector pSG5 hAR by using the TransIT method (Micrus Bio TransIT LT1, Transfection Reagent). After 36 hours, the cells where treated with tested compounds using 10000 fold molarities compared to labelled R1881 (1.34 nM). After 2 hours of incubation at 37° C., the medium was removed. The cells were removed from the wells to 150 μl of 1× phosphate buffered saline (PBS), transferred to Eppendorf tubes and centrifuged at 4° C. using 4000×g for 5 min, and then washed twice with 150 μl of PBS. The cell pellets were dissolved to 50 μl of 0.5M NaOH and incubated for 15 min at 56° C., after which the samples (three replicates for each sample compound) were transferred to liquid twinkle tubes with 3 ml of OptiPhase HiSafe 3 twinkle solution (PerkinElmer) and radioactivity of AR-bound [^3H]-R1881 determined. The results were measured with LKB WALLAC 1214 racbeta equipment. The ability of test compounds to bind AR is reported as reduction in bound radioactivity obtained with 1.34 nM [^3H]-R1881.
The results (% inhibition) were calculated as: % inhibition=100−[100×(averagecompound/average[3H]-R1881)].

Compound | Inhibition of [3H]-R1881 binding at 1.34 nM ± S.D. [%]
COc1ccccc1C1=NOC(Cc2ccccc2)(c2ccccc2)C1 (single isomer, unassigned) [Example 12a, 5-Benzyl-3-(2-methoxyphenyl)-5-phenyl-4,5-dihydro-isoxazole] | 55.9 ± 1.1
COc1ccccc1C1=NOC(Cc2ccccc2)(c2ccccc2)C1 (single isomer, unassigned) [Example 12b, 5-Benzyl-3-(2-methoxyphenyl)-5-phenyl-4,5-dihydro-isoxazole] | 30.2 ± 6.0
COc1cccc(C2=NOC(Cc3ccccc3)(c3ccccc3)C2)c1 (single isomer, unassigned) [Example 13a, 5-Benzyl-5-phenyl-3-(3-methoxyphenyl)-4,5-dihydro-isoxazole] | 31.1 ± 5.6
COc1cccc(C2=NOC(Cc3ccccc3)(c3ccccc3)C2)c1 (single isomer, unassigned) [Example 13b, 5-Benzyl-5-phenyl-3-(3-methoxyphenyl)-4,5-dihydro-isoxazole] | 1.6 ± 6.6
COc1ccc(C2=NOC(Cc3ccccc3)(c3ccccc3)C2)cc1 (single isomer, unassigned) [Example 14a, 5-Benzyl-3-(4-methoxyphenyl)-5-phenyl-4,5-dihydro-isoxazole] | 29.6 ± 3.4
COc1ccc(C2=NOC(Cc3ccccc3)(c3ccccc3)C2)cc1 (single isomer, unassigned) [Example 14b, 5-Benzyl-3-(4-methoxyphenyl)-5-phenyl-4,5-dihydro-isoxazole] | 0
Fc1ccccc1C1=NOC2CCCCC12 (single isomer, unassigned) [Example 27a, 3-(2-Fluoro-phenyl)-3a,4,5,6,7,7a-hexahydro-benzo[d]-isoxazole] | 17.0 ± 7.0
Fc1ccccc1C1=NOC2CCCCC12 (single isomer, unassigned) [Example 27b, 3-(2-Fluoro-phenyl)-3a,4,5,6,7,7a-hexahydro-benzo[d]-isoxazole] | 0
Clc1ccccc1C1=NOC2CCCCC12 (single isomer, unassigned) [Example 30a, 3-(2-Chloro-phenyl)-3a,4,5,6,7,7a-hexahydro-benzo[d]-isoxazole] | 30.2 ± 3.8
Clc1ccccc1C1=NOC2CCCCC12 (single isomer, unassigned) [Example 30b, 3-(2-Chloro-phenyl)-3a,4,5,6,7,7a-hexahydro-benzo[d]-isoxazole] | 66.3 ± 6.5
Clc1cccc(C2=NOC3CCCCC23)c1 (single isomer, unassigned) [Example 31a, 3-(3-Chloro-phenyl)-3a,4,5,6,7,7a-hexahydro-benzo[d]-isoxazole] | 20.3 ± 9.9
Clc1cccc(C2=NOC3CCCCC23)c1 (single isomer, unassigned) [Example 31b, 3-(3-Chloro-phenyl)-3a,4,5,6,7,7a-hexahydro-benzo[d]-isoxazole] | 0
O=[N+]([O-])c1ccc(C2=NOC3CCCCC23)cc1 (single isomer, unassigned) [Example 34a, 3-(4-Nitro-phenyl)-3a,4,5,6,7,7a-hexahydro-benzo[d]-isoxazole] | 34.7 ± 2.7
O=[N+]([O-])c1ccc(C2=NOC3CCCCC23)cc1 (single isomer, unassigned) [Example 34b, 3-(4-Nitro-phenyl)-3a,4,5,6,7,7a-hexahydro-benzo[d]-isoxazole] | 0
CC(C)CN1C(c2ccc([N+](=O)[O-])cc2)=NOC1(C)Cc1ccccc1 (single isomer, unassigned) [Example 61a, 5-Benzyl-4-isobutyl-5-methyl-3-(4-nitro-phenyl)-4,5-dihydro-[1,2,4]oxadiazole] | 14.9 ± 1.8
CC(C)CN1C(c2ccc([N+](=O)[O-])cc2)=NOC1(C)Cc1ccccc1 (single isomer, unassigned) [Example 61b, 5-Benzyl-4-isobutyl-5-methyl-3-(4-nitro-phenyl)-4,5-dihydro-[1,2,4]oxadiazole] | 0
COc1ccc(CC2=NOC(C)(Cc3ccccc3)N2CC(C)C)cc1 (single isomer, unassigned) [Example 65a, 5-Benzyl-4-isobutyl-3-(4-methoxy-benzyl)-5-methyl-4,5-dihydro-[1,2,4]oxadiazole] | 0
COc1ccc(CC2=NOC(C)(Cc3ccccc3)N2CC(C)C)cc1 (single isomer, unassigned) [Example 65b, 5-Benzyl-4-isobutyl-3-(4-methoxy-benzyl)-5-methyl-4,5-dihydro-[1,2,4]oxadiazole] | 13.5 ± 1.6
CC1(Cc2ccccc2)CC(c2ccccc2Cl)=NO1 (stereo not shown) [Example 5b, 5-Benzyl-3-(2-chlorophenyl)-5-methyl-4,5-dihydroisoxazole] | 59.7 ± 2.7
CCCCN1C(c2cccc(Cl)c2)=NOC1(C)Cc1ccccc1 (stereo not shown) [Example 50b, 5-Benzyl-4-butyl-3-(3-chloro-phenyl)-5-methyl-4,5-dihydro-[1,2,4]oxadiazole] | 55.7 ± 1.9

Same assay, conditions: Table 1; compound 13.4 μM; [3H]-R1881 1.34 nM; complete inhibition equals 100%; read-out: Inhibition of [3H]-R1881 binding at 1.34 nM ± S.D.

Compound | inhibition at 13.4 µM [%]
COc1cccc(C2=NOC(C)(Cc3ccccc3)C2)c1 (stereo not shown) [Example 2ab, 5-Benzyl-3-(3-methoxyphenyl)-5-methyl-4,5-dihydro-isoxazole] | 64.2 ± 2.2
CC1(Cc2ccccc2)CC(c2ccccc2F)=NO1 (stereo not shown) [Example 4ab, 5-Benzyl-3-(2-fluorophenyl)-5-methyl-4,5-dihydro-isoxazole] | 69.9 ± 3.3
CC1(Cc2ccccc2)CC(c2ccccc2Cl)=NO1 (stereo not shown) [Example 5a, 5-Benzyl-3-(2-chlorophenyl)-5-methyl-4,5-dihydroisoxazole] | 42.7 ± 6.6
CC1(Cc2ccccc2)CC(c2cccc(Cl)c2)=NO1 (stereo not shown) [Example 6ab, 5-Benzyl-3-(3-chlorophenyl)-5-methyl-4,5-dihydroisoxazole] | 31.4 ± 1.9
CC1(Cc2ccccc2)CC(c2ccc(Cl)cc2)=NO1 (stereo not shown) [Example 7ab, 5-Benzyl-3-(4-chlorophenyl)-5-methyl-4,5-dihydro-isoxazole] | 51 ± 2.4
CC1(Cc2ccccc2)CC(c2ccc(C#N)cc2)=NO1 (stereo not shown) [Example 8ab, 4-(5-Benzyl-5-methyl-4,5-dihydro-isoxazol-3-yl)-benzonitrile] | 30.4 ± 2.9
CCCCN1C(c2cccc(Cl)c2)=NOC1(C)Cc1ccccc1 (stereo not shown) [Example 50a, 5-Benzyl-4-butyl-3-(3-chloro-phenyl)-5-methyl-4,5-dihydro-[1,2,4]oxadiazole] | 63.8 ± 1.8
CCCCN1C(c2cccc3ccccc23)=NOC1(C)Cc1ccccc1 (stereo not shown) [Example 53ab, 5-Benzyl-4-butyl-5-methyl-3-napthalen-1-yl-4,5-dihydro-[1,2,4]oxadiazole] | 29.8 ± 10.8
